The target in assay [1] is T1, DDR1 (Homo sapiens (Human), UniProt Q08345). The experiment in a line: DDR1 binding assay (LanthaScreen Europium Kinase Binding assay). The note with it: potency class, read-out: Ki DDR1. On the procedure: (§1) DDR1 and DDR2 binding assays were performed using Life Technologies LanthaScreen™ Europium Kinase Binding assay. The compounds were incubated with 5 nM DDR1 (Carna Biosciences) or 5 nM DDR2 (Life Technologies) for 1 hour at room temperature in white 384-well OptiPlate (PerkinElmer), containing 20 nM or 10 nM Kinase Tracer 178 respectively and 2 nM Europium labelled anti-GST antibody (Life Technologies) in assay buffer (50 mM HEPES pH 7.5, 10 mM MgCl2, 1 mM EGTA and 0.01% BRIJ35).
(§2) The ratio of fluorescence emission 665 nm/615 nm after excitation at 340 nm was obtained using the Tecan Spark 20M plate reader. IC50 values were determined in GraphPad Prism 7.0 software, using 4 parameter model: log(inhibitor) vs. response. IC50 values were converted in Ki using the Cheng-Prusoff equation (Ki=IC50/(1+[Tracer]/Kd).

Assay [2] addresses T2, DDR2 (Homo sapiens (Human), UniProt Q16832). The experiment in a line: DDR2 binding assay (LanthaScreen Europium Kinase Binding assay). As to conditions: potency class, read-out: Ki DDR2. On the procedure: as §1, §2
Background: In TR-FRET formats the signal depends on donor and acceptor labels being close together.

The target of assay [3] is T2, DDR2. In words: DDR2 cell based assay (phospho-ELISA in HEK293T-DDR2 recombinant cells). As to conditions: DDR2 phosphorylation, Type II Collagen stimulation, potency class, read-out: IC50DDR2. On the procedure:
The inhibition of DDR2 phosphorylation by compounds was evaluated in HEK293T-DDR2 recombinant cells by phospho-ELISA assay. Briefly, HEK293T-DDR2 cells were seeded in poly-D-lysine-coated 24-well plates at a density of 250,000 cells/well and incubated for 1.5 hours at 37° C. and 5% CO2 in DMEM+10% FBS. After that, the medium was changed to serum-free DMEM and cells were incubated for 3 hours. Then. test compounds were added at different concentrations 30 minutes before stimulation with bovine Type II Collagen at […] for further 3 hours. For DDR2 phospho-ELISA assay (DuoSet IC Human Phospho-DDR2; R&D Systems), protein extracts were obtained by adding 60 μl/well of lysis buffer prepared according to the manufacturer's instructions. Protein concentration in the samples was determined by BCA assay and the levels of phospho-DDR2 were determined following R&D Systems indications. Raw data were normalized to maximal inhibition control (0% for normalization) and positive control (100% for normalization; cells treated with 20 μg/ml collagen II) and IC50 parameters were calculated in GraphPad Prism 8.0 software, using sigmoidal dose-response curve fitting with variable slope.
For orientation: ELISA stands for enzyme-linked immunosorbent assay.

For assay [4], the target named is T1, DDR1. In words: DDR1 cell based assay (PathHunter U2OS DDR1 assay). As to conditions: U2OS-DDR1 cells, Type II Collagen stimulation, potency class. On the procedure:
The inhibition of DDR1 receptor activation by compounds was evaluated by PathHunter® U2OS DDR1 assay (Eurofins DiscoverX), according to the manufacturer's instructions. Briefly, U2OS-DDR1 cells were seeded in white 384-well plates at a density of 5000 cells/well and incubated for 2 hours at 37° C. and 5% CO2. Cells were then treated with compounds at different concentrations and incubated for 30 minutes, before stimulation with bovine Type II Collagen 20 μg/ml and incubation overnight at 37° C. and 5% CO2. PathHunter Detection Reagents were prepared according to the protocol provided by DiscoverX and 20 μl/well of this mix were added to each well. After incubating the plates for 1 hour at room temperature in the dark, luminescence signal was acquired with a plate reader. Raw data were normalized to vehicle control (0% for normalization) and positive control (100% for normalization; cells treated with 20 μg/ml collagen II) and IC50 parameters were calculated in GraphPad Prism 8.0 software, using sigmoidal dose-response curve fitting with variable slope.

Ki and IC50 data for 17 compounds are collected here from patent US20240199635A1, “TETRAHYDROTHIENO PYRIDINE DERIVATIVES AS DDRS INHIBITORS” (CHIESI FARMACEUTICI S.P.A., priority 2021, published 2024).

T2 sequence (Q16832 22-855): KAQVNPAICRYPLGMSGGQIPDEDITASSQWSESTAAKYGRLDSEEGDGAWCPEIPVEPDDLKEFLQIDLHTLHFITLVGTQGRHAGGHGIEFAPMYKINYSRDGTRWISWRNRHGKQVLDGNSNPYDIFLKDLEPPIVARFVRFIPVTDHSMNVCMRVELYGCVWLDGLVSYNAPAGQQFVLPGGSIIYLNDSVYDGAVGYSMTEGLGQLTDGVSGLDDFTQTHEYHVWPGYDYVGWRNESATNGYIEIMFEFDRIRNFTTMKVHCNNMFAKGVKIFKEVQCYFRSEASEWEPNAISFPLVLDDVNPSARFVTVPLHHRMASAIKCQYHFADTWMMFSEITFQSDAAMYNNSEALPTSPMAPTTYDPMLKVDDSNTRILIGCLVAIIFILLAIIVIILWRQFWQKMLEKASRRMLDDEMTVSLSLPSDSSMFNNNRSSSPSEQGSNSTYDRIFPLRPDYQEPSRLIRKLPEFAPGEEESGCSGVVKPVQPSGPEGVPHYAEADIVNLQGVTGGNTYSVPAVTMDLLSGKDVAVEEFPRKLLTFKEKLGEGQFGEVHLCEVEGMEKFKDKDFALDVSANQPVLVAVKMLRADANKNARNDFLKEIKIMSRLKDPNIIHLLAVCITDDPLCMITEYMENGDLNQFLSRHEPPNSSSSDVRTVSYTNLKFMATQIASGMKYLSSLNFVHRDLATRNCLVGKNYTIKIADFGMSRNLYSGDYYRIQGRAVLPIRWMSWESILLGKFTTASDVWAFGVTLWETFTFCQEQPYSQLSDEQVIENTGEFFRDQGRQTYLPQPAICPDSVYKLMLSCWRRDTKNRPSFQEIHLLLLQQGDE
T1 sequence (Q08345 19-913): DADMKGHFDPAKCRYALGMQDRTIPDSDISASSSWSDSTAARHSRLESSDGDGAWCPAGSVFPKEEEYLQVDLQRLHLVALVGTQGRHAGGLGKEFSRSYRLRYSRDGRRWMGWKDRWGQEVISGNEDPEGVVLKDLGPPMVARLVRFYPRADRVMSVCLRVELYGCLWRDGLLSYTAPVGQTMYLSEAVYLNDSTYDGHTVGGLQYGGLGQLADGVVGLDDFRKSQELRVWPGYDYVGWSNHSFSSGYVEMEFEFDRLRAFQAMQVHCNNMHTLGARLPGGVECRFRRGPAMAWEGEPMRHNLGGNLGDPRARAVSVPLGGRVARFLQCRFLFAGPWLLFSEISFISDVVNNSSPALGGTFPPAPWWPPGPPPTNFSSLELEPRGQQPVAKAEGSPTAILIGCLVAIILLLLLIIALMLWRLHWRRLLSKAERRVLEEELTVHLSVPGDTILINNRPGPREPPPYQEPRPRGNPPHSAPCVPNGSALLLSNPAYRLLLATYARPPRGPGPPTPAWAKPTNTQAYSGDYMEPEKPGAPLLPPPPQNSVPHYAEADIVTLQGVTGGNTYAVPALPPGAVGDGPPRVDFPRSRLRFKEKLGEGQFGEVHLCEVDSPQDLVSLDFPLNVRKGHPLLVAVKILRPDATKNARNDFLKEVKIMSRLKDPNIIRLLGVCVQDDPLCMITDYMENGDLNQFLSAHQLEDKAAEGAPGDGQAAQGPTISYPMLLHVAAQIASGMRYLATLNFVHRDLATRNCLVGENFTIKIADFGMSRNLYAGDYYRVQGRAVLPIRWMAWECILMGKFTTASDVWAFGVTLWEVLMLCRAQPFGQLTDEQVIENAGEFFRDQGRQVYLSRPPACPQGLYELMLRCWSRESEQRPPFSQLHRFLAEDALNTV

Broadly, the Ki is the dissociation constant of the complex between target and ligand, obtained from inhibition or displacement. As for `O=C(Nc1cc(F)cc(C(F)(F)F)c1)c1csc2c1CCN(Cc1cncnc1)C2` [Example 4, N-(3-fluoro-5-(trifluoromethyl)phenyl)-6-(pyrimidin-5-ylmethyl)-4,5,6,7-tetrahydrothieno[2,3-c]pyridine-3-carboxamide], the inhibition constant (Ki) at DDR1 [1] and on DDR2 [2] was less than 25 nM in each case. Further, the IC50 on DDR2 [3] and against DDR1 [4] was less than 25 nM throughout.

With `O=C(Nc1cccc(C(F)(F)F)c1)c1csc2c1CCN(Cc1cncnc1)C2` [Example 5, 6-(pyrimidin-5-ylmethyl)-N-(3-(trifluoromethyl)phenyl)-4,5,6,7-tetrahydrothieno[2,3-c]pyridine-3-carboxamide], the inhibition constant Ki at DDR1 [1] and on DDR2 [2] was less than 25 nM in each case. The IC50 at DDR2 [3] is less than 25 nM; on DDR1 [4] it was 25 to 50 nM.

As to `Cn1cc(Nc2ncc(CN3CCc4c(C(=O)Nc5cc(C(C)(C)C)nn5C)csc4C3)cn2)cn1` [Example 16, N-(3-(tert-butyl)-1-methyl-1H-pyrazol-5-yl)-6-((2-((1-methyl-1H-pyrazol-4-yl)amino)pyrimidin-5-yl)methyl)-4,5,6,7-tetrahydrothieno[2,3-c]pyridine-3-carboxamide], the Ki at DDR1 [1] and on DDR2 [2] was less than 25 nM each time. The IC50 on DDR2 [3] and on DDR1 [4] was less than 25 nM each time.

Regarding `Cn1cc(Nc2ncc(CN3CCc4c(C(=O)Nc5cccc(C(F)(F)F)c5)csc4C3)cn2)cn1` [Example 18, 6-((2-((1-methyl-1H-pyrazol-4-yl)amino)pyrimidin-5-yl)methyl)-N-(3-(trifluoromethyl)phenyl)-4,5,6,7-tetrahydrothieno[2,3-c]pyridine-3-carboxamide], the inhibitory constant (Ki) at DDR1 [1] and at DDR2 [2] was less than 25 nM in each case. Further, the IC50 on DDR2 [3] and against DDR1 [4] was less than 25 nM throughout.

Take `CN(C)CC(=O)Nc1cncc(CN2CCc3c(C(=O)Nc4cccc(C(F)(F)F)c4)csc3C2)c1` [Example 31, 6-((5-(2-(dimethylamino)acetamido)pyridin-3-yl)methyl)-N-(3-(trifluoromethyl)phenyl)-4,5,6,7-tetrahydrothieno[2,3-c]pyridine-3-carboxamide]: the Ki on DDR1 [1] and at DDR2 [2] was less than 25 nM in each case. Besides, the IC50 on DDR2 [3] and at DDR1 [4] was 25 to 50 nM throughout.

As for `Nc1ncc(CN2CCc3c(C(=O)Nc4cc(F)cc(C(F)(F)F)c4)csc3C2)cn1` [Example 38, 6-((2-aminopyrimidin-5-yl)methyl)-N-(3-fluoro-5-(trifluoromethyl)phenyl)-4,5,6,7-tetrahydrothieno[2,3-c]pyridine-3-carboxamide], the inhibition constant (Ki) on DDR1 [1] and on DDR2 [2] was less than 25 nM each time. The IC50 on DDR2 [3] and against DDR1 [4] was less than 25 nM throughout.

For `COc1ncncc1CN1CCc2c(C(=O)Nc3cc(CN4CC[C@@H](N(C)C)C4)cc(C(F)(F)F)c3)csc2C1` [Example 52, (R)-N-(3-((3-(dimethylamino)pyrrolidin-1-yl)methyl)-5-(trifluoromethyl)phenyl)-6-((4-methoxypyrimidin-5-yl)methyl)-4,5,6,7-tetrahydrothieno[2,3-c]pyridine-3-carboxamide], the Ki at DDR1 [1] and on DDR2 [2] was less than 25 nM throughout. The compound also registered an IC50 against DDR1 [4] of 50 to 80 nM.

`CN(C)[C@@H]1CCN(Cc2cc(NC(=O)c3csc4c3CCN(Cc3cncnc3OC3CC3)C4)cc(C(F)(F)F)c2)C1` [Example 53, (R)-6-((4-cyclopropoxypyrimidin-5-yl)methyl)-N-(3-((3-(dimethylamino)pyrrolidin-1-yl)methyl)-5-(trifluoromethyl)phenyl)-4,5,6,7-tetrahydrothieno[2,3-c]pyridine-3-carboxamide]: the inhibition constant Ki on DDR1 [1] and on DDR2 [2] was less than 25 nM in each case. For the same compound, the IC50 against DDR1 [4] lay in the range of 25 to 50 nM.

As for `CN(C)[C@@H]1CCN(Cc2cc(NC(=O)c3csc4c3CCN(Cc3cncc(-c5cnn(C)c5)c3)C4)cc(C(F)(F)F)c2)C1` [Example 54, (R)-N-(3-((3-(dimethylamino)pyrrolidin-1-yl)methyl)-5-(trifluoromethyl)phenyl)-6-((5-(1-methyl-1H-pyrazol-4-yl)pyridin-3-yl)methyl)-4,5,6,7-tetrahydrothieno[2,3-c]pyridine-3-carboxamide], the inhibition constant (Ki) on DDR1 [1] and on DDR2 [2] was less than 25 nM in each case. At DDR1 [4], this compound showed an IC50 of 25 to 50 nM.

For the compound `CN(C)Cc1cc(NC(=O)c2csc3c2CCN(Cc2cnc(N)nc2)C3)cc(C(F)(F)F)c1` [Example 55, 6-((2-aminopyrimidin-5-yl)methyl)-N-(3-((dimethylamino)methyl)-5-(trifluoromethyl)phenyl)-4,5,6,7-tetrahydrothieno[2,3-c]pyridine-3-carboxamide], the inhibition constant (Ki) at DDR1 [1] and at DDR2 [2] was less than 25 nM throughout. The same compound had an IC50 on DDR1 [4] of 25 to 50 nM.

As for `CN(C)Cc1ccc(NC(=O)c2csc3c2CCN(Cc2cnc(N)nc2)C3)cc1C(F)(F)F` [Example 56, 6-((2-aminopyrimidin-5-yl)methyl)-N-(4-((dimethylamino)methyl)-3-(trifluoromethyl)phenyl)-4,5,6,7-tetrahydrothieno[2,3-c]pyridine-3-carboxamide], the inhibition constant (Ki) is less than 25 nM on DDR1 [1] and 25 to 50 nM on DDR2 [2]. For the same compound, the IC50 on DDR1 [4] lay within 25 to 50 nM.

As to `CN(C)Cc1cc(NC(=O)c2csc3c2CCN(Cc2cnc(N)nc2)C3)cc(C(F)(F)F)n1` [Example 57, 6-((2-aminopyrimidin-5-yl)methyl)-N-(2-((dimethylamino)methyl)-6-(trifluoromethyl)pyridin-4-yl)-4,5,6,7-tetrahydrothieno[2,3-c]pyridine-3-carboxamide], the inhibition constant (Ki) was less than 25 nM at DDR1 [1] and 25 to 50 nM at DDR2 [2]. This compound yielded an IC50 against DDR1 [4] of 25 to 50 nM.

For `N#Cc1cc(NC(=O)c2csc3c2CCN(Cc2cnc(N)nc2)C3)cc(C(F)(F)F)c1` [Example 59, 6-((2-aminopyrimidin-5-yl)methyl)-N-(3-cyano-5-(trifluoromethyl)phenyl)-4,5,6,7-tetrahydrothieno[2,3-c]pyridine-3-carboxamide], the Ki at DDR1 [1] and on DDR2 [2] was less than 25 nM each time. At DDR1 [4], this compound displayed an IC50 of less than 25 nM.

Regarding `Nc1ncc(CN2CCc3c(C(=O)Nc4cncc(OC(F)(F)F)c4)csc3C2)cn1` [Example 60, 6-((2-aminopyrimidin-5-yl)methyl)-N-(5-(trifluoromethoxy)pyridin-3-yl)-4,5,6,7-tetrahydrothieno[2,3-c]pyridine-3-carboxamide], the inhibition constant (Ki) on DDR1 [1] and at DDR2 [2] was less than 25 nM in each case. The same compound displayed an IC50 against DDR1 [4] of less than 25 nM.

In the case of `Nc1ncc(CN2CCc3c(C(=O)Nc4ccc(Cl)c(C(F)(F)F)c4)csc3C2)cn1` [Example 61, 6-((2-aminopyrimidin-5-yl)methyl)-N-(4-chloro-3-(trifluoromethyl)phenyl)-4,5,6,7-tetrahydrothieno[2,3-c]pyridine-3-carboxamide], the inhibition constant Ki on DDR1 [1] and on DDR2 [2] was less than 25 nM throughout. The compound further displayed an IC50 at DDR1 [4] of less than 25 nM.

Take `CC(C)(c1cc(NC(=O)c2csc3c2CCN(Cc2cnc(N)nc2)C3)no1)C(F)(F)F` [Example 62, 6-((2-aminopyrimidin-5-yl)methyl)-N-(5-(1,1,1-trifluoro-2-methylpropan-2-yl)isoxazol-3-yl)-4,5,6,7-tetrahydrothieno[2,3-c]pyridine-3-carboxamide]: the Ki at DDR1 [1] and at DDR2 [2] was less than 25 nM each time. For the same compound, the IC50 against DDR1 [4] was less than 25 nM.

On to `COc1cncc(CN2CCc3c(C(=O)Nc4cc(C(C)(C)C)no4)csc3C2)c1` [Example 65, N-(3-(tert-butyl)isoxazol-5-yl)-6-((5-methoxypyridin-3-yl)methyl)-4,5,6,7-tetrahydrothieno[2,3-c]pyridine-3-carboxamide], for which the inhibition constant Ki on DDR1 [1] and at DDR2 [2] was less than 25 nM each time. This compound also yielded an IC50 at DDR1 [4] of 25 to 50 nM.
